Test results reported in patent publication US20230012368A1 (Hoffmann-La Roche Inc., priority 2018, published 2023).
Where a name gives a salt, the structure may show the parent alone. Read-outs that look alike come from different tables or passages of the source.

System: Acinetobacter baumannii ATCC 17978
Test: Antimicrobial susceptibility testing: 90% growth inhibitory concentration (IC90) determination
Type: cell-based
Conditions: 90% growth inhibitory concentration, Acinetobacter baumannii ATCC17978, Iso-Sensitest broth, OD 600 nm over 16h, read-out: ATCC17978 IC90
Procedure, shortened: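 Growth of the Acinetobacter baumannii strain was followed by optical density at 600 nm every 20 minutes for 16h at 35±2° C. Inoculum was ~5×10^(5) CFU/ml in Iso-Sensitest medium, with twofold compound dilutions (e.g. 50 to 0.097 μM final). The 90% inhibitory concentration was derived in log-phase growth.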

[1] = Acinetobacter baumannii, ATCC17978, 16 h

Row | SMILES | IC90 [1] [nM] | IC90 [nM]
1 | CCc1cc(Nc2nccn3c(-c4ccc(OC)c(F)c4F)cnc23)ccc1C(=O)NCCCCCCN1CCCCC1 [Example 534, 4-((3-(2,3-difluoro-4-methoxyphenyl)imidazo[1,2-a]pyrazin-8-yl)amino)-2-ethyl-N-(6-(piperidin-1-yl)hexyl)benzamide] | 41 | –
2 | CCc1cc(Nc2nccn3c(-c4ccc(OC)c(F)c4F)cnc23)ccc1C(=O)NCCCCCCn1ccnc1 [Example 535, N-(6-(1H-imidazol-1-yl)hexyl)-4-((3-(2,3-difluoro-4-methoxyphenyl)imidazo[1,2-a]pyrazin-8-yl)amino)-2-ethylbenzamide] | 85 | –
3 | CCc1cc(Nc2nccn3c(-c4ccc(OC)c(F)c4F)cnc23)ccc1C(=O)NC/C=C/CN [Example 536, N-[(E)-4-aminobut-2-enyl]-4-[[3-(2,3-difluoro-4-methoxyphenyl)imidazo[1,2-a]pyrazin-8-yl]amino]-2-ethylbenzamide] | 24 | –
4 | CCc1cc(Nc2nccn3c(-c4ccc(OC)cc4C(F)(F)F)cnc23)ccc1C(=O)NC [Example 537, 2-ethyl-4-[[3-[4-methoxy-2-(trifluoromethyl)phenyl]imid-azo[1,2-a]pyrazin-8-yl]amino]-N-methyl-benzamide] | 207 | –
5 | CNC(=O)c1ccc(Nc2nccn3c(-c4ccc(OC)c(F)c4F)cnc23)cc1C [Example 538, 4-((3-(2,3-difluoro-4-methoxyphenyl)imidazo[1,2-a]pyrazin-8-yl)amino)-N,2-dimethylbenzamide] | 27 | –
6 | CCc1cc(Nc2nccn3c(-c4ccc(OC)c(F)c4F)cnc23)ccc1C(=O)N[C@H](CN)CO [Example 539, N-[(1R)-1-(aminomethyl)-2-hydroxy-ethyl]-4-[[3-(2,3-difluoro-4-methoxy-phenyl)imidazo[1,2-a]pyrazin-8-yl]amino]-2-ethyl-benzamide; formic acid] | – | 410
7 | CCc1cc(Nc2nccn3c(-c4ccc(OC)c(F)c4F)cnc23)ccc1C(=O)NCCCCCCCCN [Example 540, N-(8-aminooctyl)-4-((3-(2,3-difluoro-4-methoxyphenyl)imidazo[1,2-a]pyrazin-8-yl)amino)-2-ethylbenzamide hydrochloride] | – | 100
8 | C#CCNC(=O)c1ccc(Nc2nccn3c(-c4ccc(OC)c(F)c4F)cnc23)cc1CC [Example 541, 4-[[3-(2,3-difluoro-4-methoxyphenyl)imidazo[1,2-a]pyrazin-8-yl]amino]-2-ethyl-N-prop-2-ynylbenzamide] | 62 | –
9 | CCc1cc(Nc2nccn3c(-c4ccc(OC(F)F)c(F)c4F)cnc23)ccc1C(=O)NCCC(=O)N1CCNCC1 [Example 542, 4-((3-(4-(difluoromethoxy)-2,3-difluorophenyl)imidazo[1,2-a]pyrazin-8-yl)amino)-2-ethyl-N-(3-oxo-3-(piperazin-1-yl)propyl)benzamide 2,2,2-trifluoroacetate] | 54 | –
10 | CCc1cc(Nc2nccn3c(-c4ccc(OC)c(F)c4F)cnc23)ccc1C(=O)NCC1CCNCC1 [Example 543, 4-((3-(2,3-difluoro-4-methoxyphenyl)imidazo[1,2-a]pyrazin-8-yl)amino)-2-ethyl-N-(piperidin-4-ylmethyl)benzamide formate] | 66 | –
11 | CCc1cc(Nc2nccn3c(-c4ccc(Oc5ncccn5)c(F)c4F)cnc23)ccc1C(=O)NCCCNC(=O)C1CCNCC1 [Example 544, N-(3-(4-((3-(2,3-difluoro-4-(pyrimidin-2-yloxy)phenyl)imidazo[1,2-a]pyrazin-8-yl)amino)-2-ethylbenzamido)propyl)piper-idine-4-carboxamide formate] | 290 | –
12 | CCc1cc(Nc2nccn3c(-c4ccc(Oc5ncccn5)c(F)c4F)cnc23)ccc1C(=O)NCCCNC(=O)C1CCN(CC2CCNC2)CC1 (stereo not drawn) [Example 545, N-(3-(4-((3-(2,3-difluoro-4-(pyrimidin-2-yloxy)phenyl)imidazo[1,2-a]pyrazin-8-yl)amino)-2-ethylbenzamido)propyl)-1-(pyrrolidin-3-ylmethyl)piperidine-4-carboxamide formate] | 310 | –
13 | CCc1cc(Nc2nccn3c(-c4ccc(OC)c(F)c4F)cnc23)ccc1C(=O)NCC1CCN(C(=O)C2CCNCC2)CC1 [Example 546, 4-((3-(2,3-difluoro-4-methoxyphenyl)imidazo[1,2-a]pyrazin-8-yl)amino)-2-ethyl-N-((1-(piperidine-4-carbonyl)piperidin-4-yl)methyl)benzamide 2,2,2-trifluoroacetate] | 70 | –
14 | CCc1cc(Nc2nccn3c(-c4ccc(OC(F)F)c(F)c4F)cnc23)ccc1C(=O)NCC1CCN(CC2CNC2)CC1 [Example 547, N-((1-(azetidin-3-ylmethyl)piperidin-4-yl)methyl)-4-((3-(4-(difluoromethoxy)-2,3-difluorophenyl)imidazo[1,2-a]pyrazin-8-yl)amino)-2-ethylbenzamide formate] | 160 | –
15 | CCc1cc(Nc2nccn3c(-c4ccc(Oc5ncccn5)c(F)c4F)cnc23)ccc1C(=O)NCC1CCNCC1 [Example 548, 4-((3-(2,3-difluoro-4-(pyrimidin-2-yloxy)phenyl)imidazo[1,2-a]pyrazin-8-yl)amino)-2-ethyl-N-(piperidin-4-ylmethyl)benzamide formate] | 470 | –
16 | CCc1cc(Nc2nccn3c(-c4ccc(Oc5ncccn5)c(F)c4F)cnc23)ccc1C(=O)NCC1CCN(CC2CCNC2)CC1 (stereo not drawn) [Example 549, 4-((3-(2,3-difluoro-4-(pyrimidin-2-yloxy)phenyl)imidazo[1,2-a]pyrazin-8-yl)amino)-2-ethyl-N-((1-(pyrrolidin-3-ylmethyl)piperidin-4-yl)methyl)benzamide formate] | 490 | –
17 | CCc1cc(Nc2nccn3c(-c4ccc(OC(F)F)c(F)c4F)cnc23)ccc1C(=O)NCC1CCNC1 (stereo not drawn) [Example 550, 4-[[3-[4-(difluoromethoxy)-2,3-difluorophenyl]imidazo[1,2-a]pyrazin-8-yl]amino]-2-ethyl-N-(pyrrolidin-3-ylmethyl)benzamide; formic acid] | 150 | –
18 | CCc1cc(Nc2nccn3c(-c4ccc(OC)c(F)c4F)cnc23)ccc1C(=O)NCC1CCN(CC(=O)NCC2CCNC2)CC1 (stereo not drawn) [Example 551, 4-((3-(2,3-difluoro-4-methoxyphenyl)imidazo[1,2-a]pyrazin-8-yl)amino)-2-ethyl-N-((1-(2-oxo-2-((pyrrolidin-3-ylmethyl)amino)ethyl)piperi-din-4-yl)methyl)benzamide bis(2,2,2-trifluoroacetate)] | 77 | –
19 | CCc1cc(Nc2nccn3c(-c4ccc(OC)c(F)c4F)cnc23)ccc1C(=O)NCC1CCN(Cc2cccnc2)CC1 [Example 554, 4-[[3-(2,3-difluoro-4-methoxy-phenyl)imidazo[1,2-a]pyrazin-8-yl]amino]-2-ethyl-N-[[1-(3-pyridylmethyl)-4-piperidyl]methyl]benzamide] | 170 | –
20 | CCc1cc(Nc2nccn3c(-c4ccc(OC)c(F)c4F)cnc23)ccc1C(=O)NCc1cnn(C)c1 [Example 555, 4-[[3-(2,3-difluoro-4-methoxy-phenyl)imidazo[1,2-a]pyrazin-8-yl]amino]-2-ethyl-N-[(1-methylpyrazol-4-yl)methyl]benzamide] | 150 | –
21 | CCc1cc(Nc2nccn3c(-c4ccc(OC)c(F)c4F)cnc23)ccc1C(=O)NCC1CCN(CCC2CCCN2)CC1 (stereo not drawn) [Example 556, 4-[[3-(2,3-difluoro-4-methoxy-phenyl)imidazo[1,2-a]pyrazin-8-yl]amino]-2-ethyl-N-[[1-(2-pyrrolidin-2-ylethyl)-4-piperidyl]methyl]benzamide] | 310 | –
